In brackets after ≈: the same amount, converted by molar mass.
How the values were obtained:
Assay type in all cases: functional
[1] = system: Escherichia coli; assay: Antibacterial activity against Escherichia coli assessed as inhibition of bacterial growth
[2] = system: Staphylococcus aureus; assay: Antibacterial activity against Staphylococcus aureus ATCC 29213 assessed as inhibition of bacterial growth
[3] = system: Pseudomonas aeruginosa; assay: Antibacterial activity against Pseudomonas aeruginosa ATCC 27853 assessed as inhibition of bacterial growth
[4] = system: Pseudomonas aeruginosa; assay: Antibacterial activity against Pseudomonas aeruginosa assessed as inhibition of bacterial growth
[5] = system: Escherichia coli; assay: Synergistic antibacterial activity against Escherichia coli ATCC 25922 assessed as inhibition of bacterial growth in presence of compound 6f
[6] = system: Escherichia coli; assay: Antibacterial activity against Escherichia coli ATCC 25922 assessed as inhibition of bacterial growth
[7] = system: Staphylococcus aureus; assay: Synergistic antibacterial activity against Staphylococcus aureus assessed as inhibition of bacterial growth in presence of compound 6f
[8] = system: Acinetobacter baumannii; assay: Antibacterial activity against Acinetobacter baumannii assessed as inhibition of bacterial growth
[9] = system: Enterococcus faecalis; assay: Antibacterial activity against Enterococcus faecalis assessed as inhibition of bacterial growth
[10] = system: Staphylococcus aureus; assay: Induction of drug resistance in Staphylococcus aureus assessed as fold increase in MIC measured for 23 passages
[11] = system: Staphylococcus aureus; assay: Antibacterial activity against Staphylococcus aureus assessed as inhibition of bacterial growth
[12] = system: Staphylococcus aureus; assay: Antibacterial activity against methicillin resistant Staphylococcus aureus N315 assessed as inhibition of bacterial growth
[13] = system: Klebsiella pneumoniae; assay: Antibacterial activity against Klebsiella pneumoniae assessed as inhibition of bacterial growth
[14] = system: Staphylococcus aureus; assay: Antibacterial activity against Staphylococcus aureus ATCC 25923 assessed as inhibition of bacterial growth

| SMILES | MIC [1] | MIC [2] | MIC [3] | MIC [4] | MIC [5] | MIC [6] | MIC [7] | MIC [8] | MIC [9] | fold change (FC) [10] | MIC [11] | MIC [12] | MIC [13] | MIC [14] |
| --- | --- | --- | --- | --- | --- | --- | --- | --- | --- | --- | --- | --- | --- | --- |
| CCn1cc(C(=O)O)c(=O)c2cc(F)c(N3CCNCC3)cc21 [NORFLOXACIN] | 8 µg/mL (≈ 25.1 µM) | 16 µg/mL (≈ 50.1 µM) | 4 µg/mL (≈ 12.5 µM) | 4 µg/mL (≈ 12.5 µM) | 8 µg/mL | 16 µg/mL (≈ 50.1 µM) | 4 µg/mL | 8 µg/mL (≈ 25.1 µM) | 8 µg/mL (≈ 25.1 µM) | 32 | 16 µg/mL (≈ 50.1 µM) | 4 µg/mL (≈ 12.5 µM) | 1 µg/mL (≈ 3.13 µM) | 8 µg/mL (≈ 25.1 µM) |
| CCCCc1nc(Cl)c(C(Nc2ccc3c(C)cc(=O)oc3c2)P(=O)(OCC)OCC)n1CO (stereo not given) | 128 µg/mL (≈ 250 µM) | 128 µg/mL (≈ 250 µM) | 32 µg/mL (≈ 62.5 µM) | 256 µg/mL (≈ 500 µM) |  | 16 µg/mL (≈ 31.3 µM) |  | 64 µg/mL (≈ 125 µM) | 128 µg/mL (≈ 250 µM) |  | 2 µg/mL (≈ 3.91 µM) | 2 µg/mL (≈ 3.91 µM) | 16 µg/mL (≈ 31.3 µM) | 16 µg/mL (≈ 31.3 µM) |
| CCCCc1nc(Cl)c(C(Nc2ccc3c(C)cc(=O)oc3c2)P(=O)(OCC)OCC)n1Cc1ccc(F)cc1F (stereo not given) | 128 µg/mL (≈ 211 µM) | 64 µg/mL (≈ 105 µM) | 128 µg/mL (≈ 211 µM) | 256 µg/mL (≈ 421 µM) |  | 128 µg/mL (≈ 211 µM) |  | 64 µg/mL (≈ 105 µM) | 128 µg/mL (≈ 211 µM) |  | 32 µg/mL (≈ 52.6 µM) | 64 µg/mL (≈ 105 µM) | 128 µg/mL (≈ 211 µM) | 128 µg/mL (≈ 211 µM) |
| CCOP(=O)(OCC)C(Nc1ccc2c(C)cc(=O)oc2c1)c1ccc(Cl)cc1Cl (stereo not given) | 32 µg/mL (≈ 68 µM) | 128 µg/mL (≈ 272 µM) | 64 µg/mL (≈ 136 µM) | 128 µg/mL (≈ 272 µM) |  | 128 µg/mL (≈ 272 µM) |  | 64 µg/mL (≈ 136 µM) | 64 µg/mL (≈ 136 µM) |  | 128 µg/mL (≈ 272 µM) | 128 µg/mL (≈ 272 µM) | 64 µg/mL (≈ 136 µM) | 128 µg/mL (≈ 272 µM) |
| CCCCc1nc(Cl)c(C(Nc2ccc3c(C)cc(=O)oc3c2)P(=O)(OCC)OCC)n1Cc1ccccc1F (stereo not given) | 32 µg/mL (≈ 54.2 µM) | 32 µg/mL (≈ 54.2 µM) | 64 µg/mL (≈ 108 µM) | 256 µg/mL (≈ 434 µM) |  | 256 µg/mL (≈ 434 µM) |  | 32 µg/mL (≈ 54.2 µM) | 128 µg/mL (≈ 217 µM) |  | 128 µg/mL (≈ 217 µM) | 64 µg/mL (≈ 108 µM) | 128 µg/mL (≈ 217 µM) | 64 µg/mL (≈ 108 µM) |
| CCOP(=O)(OCC)C(Nc1ccc2c(C)c(C)c(=O)oc2c1)c1cccc(O)c1 (stereo not given) | 32 µg/mL (≈ 74.2 µM) | 16 µg/mL (≈ 37.1 µM) | 16 µg/mL (≈ 37.1 µM) | 128 µg/mL (≈ 297 µM) |  | 64 µg/mL (≈ 148 µM) |  | 256 µg/mL (≈ 593 µM) | 32 µg/mL (≈ 74.2 µM) |  | 32 µg/mL (≈ 74.2 µM) | 128 µg/mL (≈ 297 µM) | 64 µg/mL (≈ 148 µM) | 64 µg/mL (≈ 148 µM) |
| CCOP(=O)(OCC)C(Nc1ccc2c(C)cc(=O)oc2c1)c1ccc(C(=O)O)cc1 (stereo not given) | 32 µg/mL (≈ 71.8 µM) | 64 µg/mL (≈ 144 µM) | 64 µg/mL (≈ 144 µM) | 16 µg/mL (≈ 35.9 µM) |  | 256 µg/mL (≈ 575 µM) |  | 128 µg/mL (≈ 287 µM) | 128 µg/mL (≈ 287 µM) |  | 64 µg/mL (≈ 144 µM) | 256 µg/mL (≈ 575 µM) | 64 µg/mL (≈ 144 µM) | 128 µg/mL (≈ 287 µM) |
| CCOP(=O)(OCC)C(Nc1ccc2c(C)cc(=O)oc2c1)c1ccc(O)c([N+](=O)[O-])c1 (stereo not given) | 64 µg/mL (≈ 138 µM) | 32 µg/mL (≈ 69.2 µM) | 128 µg/mL (≈ 277 µM) | 32 µg/mL (≈ 69.2 µM) |  | 128 µg/mL (≈ 277 µM) |  | 64 µg/mL (≈ 138 µM) | 64 µg/mL (≈ 138 µM) |  | 32 µg/mL (≈ 69.2 µM) | 256 µg/mL (≈ 554 µM) | 128 µg/mL (≈ 277 µM) | 64 µg/mL (≈ 138 µM) |
| CCOP(=O)(OCC)C(Nc1ccc2c(C(F)(F)F)cc(=O)oc2c1)c1cccc(O)c1 (stereo not given) | 256 µg/mL (≈ 543 µM) | 64 µg/mL (≈ 136 µM) | 16 µg/mL (≈ 33.9 µM) | 32 µg/mL (≈ 67.9 µM) |  | 16 µg/mL (≈ 33.9 µM) |  | 128 µg/mL (≈ 272 µM) | 16 µg/mL (≈ 33.9 µM) |  | 16 µg/mL (≈ 33.9 µM) | 32 µg/mL (≈ 67.9 µM) | 32 µg/mL (≈ 67.9 µM) | 8 µg/mL (≈ 17 µM) |
| CCOP(=O)(OCC)C(Nc1ccc2c(C)cc(=O)oc2c1)c1ccccc1F (stereo not given) | 128 µg/mL (≈ 305 µM) | 64 µg/mL (≈ 153 µM) | 32 µg/mL (≈ 76.3 µM) | 256 µg/mL (≈ 610 µM) |  | 64 µg/mL (≈ 153 µM) |  | 64 µg/mL (≈ 153 µM) | 64 µg/mL (≈ 153 µM) |  | 16 µg/mL (≈ 38.2 µM) | 64 µg/mL (≈ 153 µM) | 128 µg/mL (≈ 305 µM) | 64 µg/mL (≈ 153 µM) |
| CCOP(=O)(OCC)C(Nc1ccc2c(C)cc(=O)oc2c1)c1ccc(Cl)cc1 (stereo not given) | 128 µg/mL (≈ 294 µM) | 128 µg/mL (≈ 294 µM) | 8 µg/mL (≈ 18.4 µM) | 16 µg/mL (≈ 36.7 µM) |  | 4 µg/mL (≈ 9.18 µM) |  | 64 µg/mL (≈ 147 µM) | 64 µg/mL (≈ 147 µM) |  | 256 µg/mL (≈ 587 µM) | 128 µg/mL (≈ 294 µM) | 64 µg/mL (≈ 147 µM) | 4 µg/mL (≈ 9.18 µM) |
| CCOP(=O)(OCC)C(Nc1ccc2c(C)cc(=O)oc2c1)c1nccs1 (stereo not given) | 128 µg/mL (≈ 313 µM) | 32 µg/mL (≈ 78.4 µM) | 8 µg/mL (≈ 19.6 µM) | 64 µg/mL (≈ 157 µM) |  | 64 µg/mL (≈ 157 µM) |  | 32 µg/mL (≈ 78.4 µM) | 128 µg/mL (≈ 313 µM) |  | 16 µg/mL (≈ 39.2 µM) | 64 µg/mL (≈ 157 µM) | 256 µg/mL (≈ 627 µM) | 128 µg/mL (≈ 313 µM) |

From ChEMBL document CHEMBL5385845, “Novel coumarin aminophosphonates as potential multitargeting antibacterial agents against Staphylococcus aureus” (Eur J Med Chem, 2023)
